# Measurements published in patent US8063022B1, “Methods for preventing formation of inhibitory antibodies in the setting of gene therapy” (priority 1999, dated 2011).
# Where two headings read alike, the source gives them in different places.
# What was measured:
# [1] = tested on: Hemophilia B knockout mice; assay: Western blot for antibody to murine F.IX in hemophilic mice injected with AAV-mF.IX; assay type: in vivo, mouse; conditions: up to five months of observation
# Description: (§1) Hemophilia B knockout mice were injected intramuscularly with AAV mF.IX (1×10^11) at day 0, without or with immunomodulation therapy. The mice were bled at monthly time points in citrate. The assays which were performed included a clotting based-apTT (measure of correction of hemostatic defect) assay and Bethesda titer (1 BU defined as 50% residual FIX in a 2 hour 50:50 mix). In addition, antibody assays, Western blot analysis and ELISA assays were performed. The immunomodulatory strategies used to address formation of antibodies to the transgene product were as follows: […]
# [2] = tested on: Hemophilia B knockout mice; assay type: in vivo, mouse; conditions: for Bethesda titer of AAV-F.IX treated mice: values of individual mice; for correction of the aPTT (in words): hemophilia B mice injected with AAV-mF.IX, with or without immunomodulation
# Description: A cohort of six mice were injected intramuscularly with an adeno-associated virus (AAV) vector encoding the murine F.IX transgene (total dose 1×10^11 vector genomes/mouse). Mice were bled at monthly intervals via tail vein transection, and clotting times of plasma were measured by aPTT assay. […] Two other cohorts of mice received immunomodulation around the time of vector administration in an effort to suppress inhibitor formation. One cohort (n=4) received anti-CD40L antibody at a total dose of 0.4 mg per mouse given in four divided doses (0.1 mg at days -3, 0, 3, 6) while the other cohort received cyclophosphamide (CYP, n=4) at doses of 50 mg/kg per mouse biweekly at four time points.
# as §1
smiles,measurement,setting,value
"O=P1(N(CCCl)CCCl)NCCCO1 (centres unmarked) [CYP, cyclophosphamide]",antibody to murine F.IX on Western blot (in words),[1],did not develop antibodies
same,Bethesda titer of AAV-F.IX treated mice,[2]; 1 month after vector,0/0/0
same,Bethesda titer of AAV-F.IX treated mice,[2]; 2 months after vector,0/0/0
same,period over which aPTT correction was maintained,[2]; after vector injection,greater than ten months
same,aPTT,"[2]; all mice at one month after vector, normal 22-39 s",28.9 to 30.9 s
same,animals with no evidence of inhibitor antibody formation,"[2]; four doses at two week intervals, at least five months after vector",3/3
same,correction of the aPTT (in words),[2],nearly complete correction
same,correction of the aPTT (in words),[2]; listed as cyclophosphamide,sustained correction of the aPTT
